One sequence from patent US20110306554A1, “PEPTIDE CAPABLE OF BINDING TO IMMUNOGLOBULIN” (priority 2009, published 2011) can be followed below.

The subject of this experiment is Monoclonal antibody cocktail-induced arthritis mice. The experiment is described as follows: Arthritis suppressing effects on arthritis-induced mice, Part 3. The note with it: 10 mg/kg intravenously once a day from day 4, 10 days. It counts as in vivo. The protocol: Monoclonal antibody cocktail-induced arthritis mice were used to examine arthritis suppressing effects of peptides which are indicated as R13 and R17 in the section (3) in Example 2. Arthritis was caused by intravenous administration of 2 mg/mouse of an arthritis-inducing monoclonal antibody cocktail and three days later, intraperitoneal administration of 50 μg/mouse of LPS. The peptides were given via intraperitoneal or intravenous administration at a dose of 10 mg/kg once a day for a period of 10 consecutive days from four days after the administration of the arthritis-inducing monoclonal antibody cocktail, and arthritis suppressing effect was examined in terms of clinical score and hind-limb volume determination.
The required amount was calculated for each peptide, based on the animal weight. Each peptide solution was prepared using physiological saline (at 0.1 mg/ml for R1, 1 mg/ml for R2, and 1 or 10 mg/ml for R13 and R17), and cold stored. […]
Results of examinations were expressed by mean value±standard error and analyzed using EXSAS (Version 7.1.6, Arm Systex Co., Ltd.). […] Quantitative data, such as body weights and leg volumes, were subjected to Bartlett's test, followed by Dunnett's multiple comparison test when the variance was uniform or Steel's multiple comparison test when the variance was not uniform.

Take “KFTSKVPGLYYFVYH (Immunoglobulin binding peptide) [R17]”: the “arthritis-suppressing effect (clinical score)” value is “arthritis-suppressing effects comparable to those of the groups receiving administration of R1 (intravenously) or R2 (intraperitoneally)”.
